Test results reported in patent US6066310A, “Diagnostic and therapeutic method for tumor using radiolabeled avidin” (Nihon Medi-Physics Co., Ltd., priority 1997, dated 2000).
Read-outs that look alike come from different tables or passages of the source.

Settings: 2 hours after biotin, LS180 xenografted mice
Description: LS 180-tumor xenografted mice received injection with 300 μg unlabeled avidin and 1-24 hours later injection with 0.3 μg In-111 labeled biotin. […] After 2 hours from the injection of biotin, 4-5 mice per group were sacrificed and measured for distribution of radioactivity.

[1] = biotin 1 hr after pre-targeting of avidin
[2] = biotin 4 hr after pre-targeting of avidin
[3] = biotin 8 hr after pre-targeting of avidin
[4] = biotin 24 hr after pre-targeting of avidin
[5] = without pre-targeting of avidin

SMILES: O=C([O-])CN(CCN(CC(=O)[O-])CC(=O)NC(CCCCNC(=O)CCCCC1SCC2NC(=O)NC21)C(=O)O)CCN(CC(=O)[O-])CC(=O)NC(CCCCNC(=O)CCCCC1SCC2NC(=O)NC21)C(=O)O.[111In+3] (stereo not drawn) [radiolabeled biotin]
- Tumor/Blood ratio of radioactivity [1]: 160.3 ± 26.9
- Tumor/Bone ratio of radioactivity [1]: 60.7 ± 13.7
- Tumor/Kidney ratio of radioactivity [1]: 3.48 ± 0.94
- Tumor/Liver ratio of radioactivity [1]: 4.19 ± 1.45
- Tumor/Spleen ratio of radioactivity [1]: 5.14 ± 2.58
- radioactivity per 1 g of organ: Blood [1]: 0.38 ± 0.08
- radioactivity per 1 g of organ: Bone [1]: 0.99 ± 0.08
- radioactivity per 1 g of organ: Intestine [1]: 1.03 ± 0.30
- radioactivity per 1 g of organ: Kidney [1]: 17.44 ± 2.16
- radioactivity per 1 g of organ: Liver [1]: 14.77 ± 2.84
- radioactivity per 1 g of organ: Lung [1]: 1.07 ± 0.91
- radioactivity per 1 g of organ: Muscle [1]: 0.10 ± 0.06
- radioactivity per 1 g of organ: Spleen [1]: 12.85 ± 4.02
- radioactivity per 1 g of organ: Stomach [1]: 3.24 ± 0.63
- radioactivity per 1 g of organ: Tumor [1]: 59.28 ± 9.89
- Tumor/Blood ratio of radioactivity [2]: 159.0 ± 50.9
- Tumor/Bone ratio of radioactivity [2]: 107.3 ± 79.1
- Tumor/Kidney ratio of radioactivity [2]: 12.26 ± 2.75
- Tumor/Liver ratio of radioactivity [2]: 20.89 ± 5.43
- Tumor/Spleen ratio of radioactivity [2]: 22.03 ± 9.18
- radioactivity per 1 g of organ: Blood [2]: 0.25 ± 0.03
- radioactivity per 1 g of organ: Bone [2]: 0.60 ± 0.45
- radioactivity per 1 g of organ: Intestine [2]: 0.27 ± 0.06
- radioactivity per 1 g of organ: Kidney [2]: 3.30 ± 0.94
- radioactivity per 1 g of organ: Liver [2]: 1.92 ± 0.58
- radioactivity per 1 g of organ: Lung [2]: 0.32 ± 0.11
- radioactivity per 1 g of organ: Muscle [2]: 0.32 ± 0.22
- radioactivity per 1 g of organ: Spleen [2]: 2.14 ± 1.24
- radioactivity per 1 g of organ: Stomach [2]: 1.08 ± 0.44
- radioactivity per 1 g of organ: Tumor [2]: 39.31 ± 11.3
- Tumor/Blood ratio of radioactivity [3]: 52.6 ± 23.9
- Tumor/Bone ratio of radioactivity [3]: 59.22 ± 35.9
- Tumor/Kidney ratio of radioactivity [3]: 7.18 ± 2.66
- Tumor/Liver ratio of radioactivity [3]: 48.14 ± 20.2
- Tumor/Spleen ratio of radioactivity [3]: 40.87 ± 15.0
- radioactivity per 1 g of organ: Blood [3]: 0.20 ± 0.03
- radioactivity per 1 g of organ: Bone [3]: 0.20 ± 0.07
- radioactivity per 1 g of organ: Intestine [3]: 0.11 ± 0.02
- radioactivity per 1 g of organ: Kidney [3]: 1.41 ± 0.29
- radioactivity per 1 g of organ: Liver [3]: 0.21 ± 0.04
- radioactivity per 1 g of organ: Lung [3]: 0.19 ± 0.10
- radioactivity per 1 g of organ: Muscle [3]: 0.06 ± 0.03
- radioactivity per 1 g of organ: Spleen [3]: 0.26 ± 0.13
- radioactivity per 1 g of organ: Stomach [3]: 0.13 ± 0.09
- radioactivity per 1 g of organ: Tumor [3]: 10.49 ± 5.16
- Tumor/Blood ratio of radioactivity [4]: 9.72 ± 2.07
- Tumor/Bone ratio of radioactivity [4]: 9.42 ± 2.29
- Tumor/Kidney ratio of radioactivity [4]: 1.39 ± 0.40
- Tumor/Liver ratio of radioactivity [4]: 11.20 ± 3.77
- Tumor/Spleen ratio of radioactivity [4]: 14.75 ± 5.59
- radioactivity per 1 g of organ: Blood [4]: 0.15 ± 0.07
- radioactivity per 1 g of organ: Bone [4]: 0.17 ± 0.13
- radioactivity per 1 g of organ: Intestine [4]: 1.18 ± 1.35
- radioactivity per 1 g of organ: Kidney [4]: 1.01 ± 0.23
- radioactivity per 1 g of organ: Liver [4]: 0.13 ± 0.02
- radioactivity per 1 g of organ: Lung [4]: 0.13 ± 0.06
- radioactivity per 1 g of organ: Muscle [4]: 0.12 ± 0.16
- radioactivity per 1 g of organ: Spleen [4]: 0.10 ± 0.01
- radioactivity per 1 g of organ: Stomach [4]: 1.49 ± 1.61
- radioactivity per 1 g of organ: Tumor [4]: 1.45 ± 0.70
- Tumor/Blood ratio of radioactivity [5]: 5.78 ± 2.44
- Tumor/Bone ratio of radioactivity [5]: 5.97 ± 3.51
- Tumor/Kidney ratio of radioactivity [5]: 0.55 ± 0.22
- Tumor/Liver ratio of radioactivity [5]: 3.90 ± 1.32
- Tumor/Spleen ratio of radioactivity [5]: 3.94 ± 1.79
- radioactivity per 1 g of organ: Blood [5]: 0.12 ± 0.03
- radioactivity per 1 g of organ: Bone [5]: 0.25 ± 0.34
- radioactivity per 1 g of organ: Intestine [5]: 0.49 ± 0.46
- radioactivity per 1 g of organ: Kidney [5]: 1.23 ± 0.21
- radioactivity per 1 g of organ: Liver [5]: 0.17 ± 0.05
- radioactivity per 1 g of organ: Lung [5]: 0.14 ± 0.05
- radioactivity per 1 g of organ: Muscle [5]: 0.20 ± 0.27
- radioactivity per 1 g of organ: Spleen [5]: 0.18 ± 0.05
- radioactivity per 1 g of organ: Stomach [5]: 0.12 ± 0.03
- radioactivity per 1 g of organ: Tumor [5]: 0.70 ± 0.35
